Where two headings read alike, the source gives them in different places.
Type: physicochemical
Procedure: Maintaining the solution at low temperature and buffering the drug can control degradation kinetics of aqueous solutions but the stability achieved is not sufficient to render the product stable during its entire proposed shelf life. A dry solid formulation of decitabine which is stable was achieved by lyophilization of an aqueous solution. The process of lyophilization to obtain a solid form is considered essential for maximizing the stability of the product.
A bulk solution of 5 mg/mL of decitabine was prepared during compounding. To minimize degradation during compounding of the bulk solution prior to lyophilization, the bulk solution was maintained at low temperature, and the time the drug remains in solution prior to lyophilization was minimized. Maximum solution stability was achieved by dissolving the drug in a pH 6.8-7.0 phosphate buffer solution at 0-4° C.
Based on the results, appropriate recommendations for the preparation and storage of the reconstituted and diluted solutions can be made to pharmacists and clinical practitioners. The product was reconstituted in 10 mL WFI and diluted with one of the three pre-chilled infusion fluids indicated in Table 1 and Table 2 to two different concentrations, 0.1 mg/mL and 1 mg/mL covering the entire concentration range expected to be used in the clinical setting. The diluted solutions were stored for one to ten hours in infusion bags in the refrigerator at 2-8° C. to simulate conditions prior to infusion and then removed and placed at room temperature to simulate conditions during infusion. Bags placed in the refrigerator for one hour were removed and placed at room temperature and sampled thereafter for the next three hours at room temperature (Experiment No. 1) while the bags placed in the refrigerator for ten hours were removed and sampled for the next two hours at room temperature (Experiment No. 2).
The method used to estimate degradation products is based on percent peak area measurements assuming the degradation products have a response factor of 1, with respect to decitabine.
Table 1 and Table 2 also show the pH data obtained after the preparation of the infusion, which is consistently within ±0.3 pH units of neutral pH.

[1] = 0.1 mg/mL in 0.9% NaCl, Experiment 1 (2-8° C. one hour, then room temperature), at 0 h
[2] = 0.1 mg/mL in 0.9% NaCl, Experiment 1 (2-8° C. one hour, then room temperature), at 1 h
[3] = 0.1 mg/mL in 0.9% NaCl, Experiment 1 (2-8° C. one hour, then room temperature), at 2 h
[4] = 0.1 mg/mL in 0.9% NaCl, Experiment 1 (2-8° C. one hour, then room temperature), at 3 h
[5] = 0.1 mg/mL in 0.9% NaCl, Experiment 1 (2-8° C. one hour, then room temperature), at 4 h
[6] = 0.1 mg/mL in 0.9% NaCl, Experiment 2 (2-8° C. ten hours, then room temperature), at 0 h
[7] = 0.1 mg/mL in 0.9% NaCl, Experiment 2 (2-8° C. ten hours, then room temperature), at 10 h
[8] = 0.1 mg/mL in 0.9% NaCl, Experiment 2 (2-8° C. ten hours, then room temperature), at 11 h
[9] = 0.1 mg/mL in 0.9% NaCl, Experiment 2 (2-8° C. ten hours, then room temperature), at 12 h
[10] = 0.1 mg/mL in 5% Dextrose, Experiment 1 (2-8° C. one hour, then room temperature), at 0 h
[11] = 0.1 mg/mL in 5% Dextrose, Experiment 1 (2-8° C. one hour, then room temperature), at 1 h
[12] = 0.1 mg/mL in 5% Dextrose, Experiment 1 (2-8° C. one hour, then room temperature), at 2 h
[13] = 0.1 mg/mL in 5% Dextrose, Experiment 1 (2-8° C. one hour, then room temperature), at 3 h
[14] = 0.1 mg/mL in 5% Dextrose, Experiment 1 (2-8° C. one hour, then room temperature), at 4 h
[15] = 0.1 mg/mL in 5% Dextrose, Experiment 2 (2-8° C. ten hours, then room temperature), at 0 h
[16] = 0.1 mg/mL in 5% Dextrose, Experiment 2 (2-8° C. ten hours, then room temperature), at 10 h
[17] = 0.1 mg/mL in 5% Dextrose, Experiment 2 (2-8° C. ten hours, then room temperature), at 11 h
[18] = 0.1 mg/mL in 5% Dextrose, Experiment 2 (2-8° C. ten hours, then room temperature), at 12 h
[19] = 0.1 mg/mL in Lactated Ringer's, Experiment 1 (2-8° C. one hour, then room temperature), at 0 h
[20] = 0.1 mg/mL in Lactated Ringer's, Experiment 1 (2-8° C. one hour, then room temperature), at 1 h
[21] = 0.1 mg/mL in Lactated Ringer's, Experiment 1 (2-8° C. one hour, then room temperature), at 2 h
[22] = 0.1 mg/mL in Lactated Ringer's, Experiment 1 (2-8° C. one hour, then room temperature), at 3 h
[23] = 0.1 mg/mL in Lactated Ringer's, Experiment 1 (2-8° C. one hour, then room temperature), at 4 h
[24] = 0.1 mg/mL in Lactated Ringer's, Experiment 2 (2-8° C. ten hours, then room temperature), at 0 h
[25] = 0.1 mg/mL in Lactated Ringer's, Experiment 2 (2-8° C. ten hours, then room temperature), at 10 h
[26] = 0.1 mg/mL in Lactated Ringer's, Experiment 2 (2-8° C. ten hours, then room temperature), at 11 h
[27] = 0.1 mg/mL in Lactated Ringer's, Experiment 2 (2-8° C. ten hours, then room temperature), at 12 h

Nc1ncn([C@H]2C[C@H](O)[C@@H](CO)O2)c(=O)n1 [Decitabine, 4-amino-1-(2-deoxy-β-D-erythro-pentofuranosyl)-1,3,5-triazin-2(1H)-one]
degradation in aqueous solution: degrades rapidly
pH after the preparation of the infusion (0.1 mg/mL in 0.9% NaCl): 6.7
Decitabine Content [1]: 97.5%
Total Impurities [1]: (2.5%)
Decitabine Content [2]: 96.9%
Total Impurities [2]: (3.2%)
Decitabine Content [3]: 95.7%
Total Impurities [3]: (4.3%)
Decitabine Content [4]: 94.1%
Total Impurities [4]: (6.0%)
Decitabine Content [5]: 92.5%
Total Impurities [5]: (7.7%)
Decitabine Content [6]: 97.8%
Total Impurities [6]: (2.2%)
Decitabine Content [7]: 93.4%
Total Impurities [7]: (6.7%)
Decitabine Content [8]: 92.3%
Total Impurities [8]: (7.7%)
Decitabine Content [9]: 90.8%
Total Impurities [9]: (9.2%)
pH after the preparation of the infusion (0.1 mg/mL in 5% Dextrose): 6.9
Decitabine Content [10]: 97.4%
Total Impurities [10]: (2.6%)
Decitabine Content [11]: 97.2%
Total Impurities [11]: (2.7%)
Decitabine Content [12]: 96.4%
Total Impurities [12]: (3.6%)
Decitabine Content [13]: 94.9%
Total Impurities [13]: (5.1%)
Decitabine Content [14]: 93.6%
Total Impurities [14]: (6.4%)
Decitabine Content [15]: 98.2%
Total Impurities [15]: (1.9%)
Decitabine Content [16]: 94.9%
Total Impurities [16]: (5.2%)
Decitabine Content [17]: 94.5%
Total Impurities [17]: (5.6%)
Decitabine Content [18]: 93.3%
Total Impurities [18]: (6.7%)
pH after the preparation of the infusion (0.1 mg/mL in Lactated Ringer's): 6.7
Decitabine Content [19]: 98.3%
Total Impurities [19]: (1.7%)
Decitabine Content [20]: 98.1%
Total Impurities [20]: (1.9%)
Decitabine Content [21]: 97.0%
Total Impurities [21]: (3.0%)
Decitabine Content [22]: 95.9%
Total Impurities [22]: (4.1%)
Decitabine Content [23]: 94.9%
Total Impurities [23]: (5.2%)
Decitabine Content [24]: 98.0%
Total Impurities [24]: (2.1%)
Decitabine Content [25]: 93.4%
Total Impurities [25]: (6.7%)
Decitabine Content [26]: 92.6%
Total Impurities [26]: (7.4%)
Decitabine Content [27]: 91.8%
Total Impurities [27]: (8.3%)
pH of maximum solution stability (5 mg/mL): 6.8-7.0
pH deviation from neutral pH after the preparation of the infusion (Table 1 and Table 2 solutions): ≤ 0.3 pH units

Reference: US20070117776A1, “Low Dose Therapy Of DNA Methylation Inhibitors” (priority 2005, published 2007)
